Data on twelve compounds can be found in patent US5795977A, “Water soluble adenosine kinase inhibitors” (Metabasis Therapeutics, Inc., priority 1996, dated 1998).

The subject of one series is Female SA rats. In words: Liver toxicity assay. The class given is in vivo. The note with it: rat, i.v. infusion, total dose 75 μmole/kg, serum. On the procedure:
Female SA rats (150-200 g) are anesthetized with halothane and cannulated via the internal jugular vein. The animals are allowed to recover for 3 days. At this time, 37.5 μmole/kg of an AK inhibitor is dissolved in 50% PEG400 and infused through the jugular catheter over 20 minutes. Twelve hours later, an additional 37.5 μmole/kg is infused over 20 minutes (total dose =75 μmole/kg). […] Liver enzymes (serum glutamic-oxaloacetic transaminase (SGOT), serum glutamic-pyruvic transaminase (SGPT), alkaline phosphatase) and total bilirubin in the serum samples are determined by a commercial laboratory.

The next series concerns Rats (carrageenan paw). As to the kind of experiment: Anti-inflammatory activity, carrageenan paw swelling. The class given is in vivo. The conditions noted are these: rat, 10 mg/kg, swelling after 3 hours; for Carrageenan Paw (% inhibition) po: oral gavage. On the procedure: Carrageenan (Type λ) was suspended in sterile PBS at 1% (w/v), autoclaved for 30 minutes, and stored at room temperature. Rats were pretreated with vehicle or AK inhibitor (10 mg/kg) by oral gavage or i.p. administration and the volume of the left hind paw was measured using a water displacement plethysmometer (Stoelting Co., Wood Dale, Ill.). One hour after oral treatment or 30 minutes after i.p. treatment, the rats were briefly anesthetized, and 0.1 ml of the carrageenan solution was injected subcutaneously into the planar surface of the left hind paw. The ensuing paw swelling was measured by plethysmometry after 3 hours. The paw volume in millileters was […]. Data are presented in Table 2 as the percent inhibition of paw swelling in AK inhibitor treated animals, compared to vehicle treated control animals.
On the technique in general: The carrageenan paw model is a standard test of acute inflammation.

Series [1] has as its target partially purified pig heart adenosine kinase or recombinant human adenosine kinase. In words: AK inhibition. The class given is biochemical. The note with it: 0.5 μM [U-14C] adenosine, pH 7.0, 37° C., 20 minutes. The protocol:
Adenosine kinase activity was measured essentially as described by Yamada et al. Biochim. Biophys. Acta 660, 36-43 (1988) with a few minor modifications. Assay mixtures contained 50 mM TRIS-maleate buffer, pH 7.0, 0.1% BSA, 1 mM ATP 1 mM MgCl2, 0.5 μM [U-^14 C] adenosine (400-600 mCi/mmol) and varying duplicate concentrations of inhibitor. […] The amount of ^14 C-AMP was quantified by scintillation counting.

For series [2], the system named is isolated guinea pig hearts. The conditions noted are these: in the absence of ADA inhibition; cited from earlier work.
Series [3] concerns male SA rats (maximal electroshock seizures). In words: Anticonvulsant activity, maximal electroshock seizures (MES). The class given is in vivo. The note with it: rat, po, fasted; >> = no activity at the stated dose. The protocol: The anticonvulsant activity of the tested compounds was evaluated in male SA rats (100-150g, Simonsen) using the maximal electroshock (MES) model described in Swinyard et al., Antiepileptic Drugs, 3d Ed. at 85-102 (Levy, et al., eds.), NY: Raven Press (1989). The rats were maintained on a 12/12 light/dark cycle in temperature controlled facilities with free access to food and water. For p.o. administration, the animals are fasted overnight, prior to the experiment. One to two hours prior to seizure testing, the animals were injected interperitoneally (ip) or orally (per os, po) with one of various doses of test compound dissolved in DMSO or PEG 400.
This endpoint was expressed as the percentage of animals in which the response was inhibited.
In general terms: Protection in the maximal electroshock model is a classic sign of anticonvulsant action.

A short description of a further series: Water solubility. The class given is physicochemical. The conditions noted are these: suitable pH for i.v. administration (e.g. pH 4 to 10). On the procedure:
The sample was sonicated for a period of up to 20 minutes. If a solution was not obtained, further solvent was added and the process was repeated until a clear solution was obtained, and the results were recorded. Solutions used were 50 mM potassium biphthalate (pH 4); 100 mM glycine (pH 9); 25 mM sodium carbonate and 25 mM sodium bicarbonate (pH 10); or deionized water (DI).

Series [4] deals with mice. As to the kind of experiment: HPLC analysis of plasma, metabolism in mice. The class given is in vivo, mouse. The conditions noted are these: oral, 10 mg/kg.
Another series deals with rat cardiomyocytes. The conditions noted are these: inhibition of adenosine deaminase alone; cited from earlier work.
Series [5] deals with mice. The conditions noted are these: cited from earlier work.
The test system of a further series is Rats (formalin paw). As to the kind of experiment: Formalin paw assay. The conditions noted are these: rat, oral 90 min prior, 10.3-30 min post-formalin, vs vehicle. The class given is in vivo. The protocol:
In this assay, injection of formalin, an irritant, into the hindpaw of rats typically evokes a biphasic response of pain-related behaviors. Phase 1 of the response which is brief, lasting approximately 0-5 min post-injection,is followed by a more prolonged phase 2, lasting approximately 10-80 min post-injection. Phase 1 behavior is thought to be a direct effect of the irritant on nociceptors at the injection site while phase 2 behavior is thought to include a hyperalgesic component mediated by sensitization of neuronal elements within the spinal cord. Studies from other laboratories have found the first portion of Phase 2 (sometimes referred to as Phase 2a) to be most responsive to pharmacological manipulation.
Rats (male, Simonsen) weighing between 100-200 g, are used in the present experiments. For screening purposes drugs are administered orally 90 min prior to initiation of formalin test. At designated intervals the animals in groups of 4 are placed individually in a small animal restrainer with the right hindpaw accessible through a hole in the bottom of the restrainer. The formalin paw assay is initiated by the injection using a 30G needle of 50 ul of a 5% formalin solution in saline into the right plantar surface of each hindpaw. […]
Scores are continuously recorded directly onto an Excel spreadsheet.

For another series, the system named is isolated rat hearts. The note with it: alone, cited from earlier work.
In a further series the test system is ischemic cerebral injury. The conditions noted are these: in vivo; cited from earlier work.

Like-named read-outs stand apart in the source and are kept apart here. Bounds are passed on as bounds.

Usually IC50 stands for the point on the concentration scale where inhibition reaches its midpoint. With `CCN(CC)CCc1ccc(Nc2ncnc3c2c(-c2ccccc2)cn3[C@@H]2O[C@H](C)[C@@H](O)[C@H]2O)cc1` [Compound 6, 4-N-[4-(2-N,N-diethylaminoethyl)phenyl]amino-5-phenyl-7-(5-deoxy-β-D-ribofuranosyl)pyrrolo[2,3-d]pyrimidine], in the series with Female SA rats, the “Alkaline Phosphatase” value turned out to be 104 IU/L, the SGOT stood at 306 IU/L, the SGPT came to 110 IU/L and the “Total Bilirubin” value worked out at 0.43 mg/dL. In the series with Rats (carrageenan paw), the “Carrageenan Paw (% inhibition) ip” value is given as 81.5% and the “Carrageenan Paw (% inhibition) po” value is on record as 42.6%. The concentration for half-maximal inhibition (IC50) in series [1] was 1 nM.
As to `NC[C@H]1O[C@@H](n2cnc3c(N)ncnc32)[C@H](O)[C@@H]1O` [5'-amino-5'-deoxyadenosine], the “effect on adenosine release” value in series [2] is listed as “not apparent”.
The ED50 is the dose that gives a 50% effect, or the effect in half of the subjects. A lower ED50 goes with greater potency. In turn, `CCN(CC)CCNCCc1ccc(Nc2ncnc3c2c(-c2ccccc2)cn3[C@@H]2O[C@H](C)[C@@H](O)[C@H]2O)cc1` [Compound 5, 4-N-[4-(2-(2-N,N-diethylaminoethyleneamino)ethyl)phenyl]amino-5-phenyl-7-(5-deoxy-β-D-ribofuranosyl)pyrrolo[2,3-d]pyrimidine] gave a median effective dose (ED50) in series [3] of over 10 mg/kg. In addition, in the series with Rats (carrageenan paw), the “Carrageenan Paw (% inhibition) ip” value worked out at 0.0% and the “Carrageenan Paw (% inhibition) po” value came to 4.1%. In [1], the concentration for half-maximal inhibition (IC50) was determined as 1 nM.
For `C[C@H]1O[C@@H](n2cc(-c3ccccc3)c3c(Nc4ccccc4)ncnc32)[C@H](O)[C@@H]1O` [5-phenyl-4-N-phenylamino-7-(5-deoxy-1-β-D-ribofuranosyl)pyrrolo[2,3-d]pyrimidine], the water solubility result in the series “Water solubility” is on record as “less than 20 μg/ml”.
In the case of `C[C@H]1O[C@@H](n2cc(I)c3c(NCCc4ccccn4)ncnc32)[C@H](O)[C@@H]1O` [Compound 43, 4-N-(2-(2-pyridylethyl)amino)-5-iodo-7-(5-deoxy-1-β-D-ribofuranosyl)pyrrolo[2,3-d]pyrimidine], in the series on mice [4], the “metabolism to a potent AK inhibitor, HPLC analysis of plasma” value is “undergo metabolism in mice after oral administratio”. For the same compound, the IC50 in series [1] came to 10000 nM.
Take `OC[C@H]1O[C@@H](n2cnc3c2N=CNC[C@H]3O)C[C@@H]1O` [2'-deoxycoformycin]: in the series with rat cardiomyocytes, the adenosine release entry was “no effect on adenosine release”.
`C[C@H]1O[C@@H](n2cc(I)c3c(N)ncnc32)[C@H](O)[C@@H]1O` [REF.A, reference compound]: in the series with Female SA rats, the SGPT came out at 76 IU/L and the “Total Bilirubin” value was 0.76 mg/dL. The “flaccidity (skeletal muscle relaxation)” value in the series on mice [5] was “pronounced general flaccidity”.
The compound `C[C@H]1O[C@@H](n2cc(-c3ccccc3)c3c(Nc4ccc(CCN5CCOCC5)cc4)ncnc32)[C@H](O)[C@@H]1O` [Compound 3, 4-N-[4-(2-(4-morpholino)ethyl)phenyl]amino-5-phenyl-7-(5-deoxy-β-D-ribofuranosyl)pyrrolo[2,3-d]pyrimidine] returned a 50% effective dose (ED50) in series [3] of over 10 mg/kg. The “Phase 2 composite score, percent inhibition” value with Rats (formalin paw) is reported as 31%. Besides, in the series with Rats (carrageenan paw), the “Carrageenan Paw (% inhibition) ip” value stood at 19.5% and the “Carrageenan Paw (% inhibition) po” value is on record as 9.8%. In [1], the IC50 worked out at 2 nM.
The compound `C[C@H]1O[C@@H](n2cc(-c3ccccc3)c3c(NCc4ccncc4)ncnc32)[C@H](O)[C@@H]1O` [Compound 49, 4-N-(4-pyridylmethyl)amino-5-phenyl-7-(5-deoxy-1-β-D-ribofuranosyl)-pyrrolo[2,3-d]pyrimidine] showed an ED50 in series [3] of over 40 mg/kg. In addition, in series [1], the IC50 amounted to 67 nM.
`OC[C@@H]1O[C@@H](n2cc(-c3ccccc3)c3c(Nc4ccc(CCN5CCNCC5)cc4)ncnc32)[C@H](O)[C@@H]1O` [Compound 12, 4-N-[4-(1-piperazinoethyl)phenyl]amino-5-phenyl-7-α-L-lyxofuranosylpyrrolo[2,3-d]pyrimidine]: in the series on Female SA rats, the “Alkaline Phosphatase” value worked out at 106 IU/L, the SGOT turned out to be 211 IU/L, the SGPT amounted to 76 IU/L and the “Total Bilirubin” value is listed as 0.41 mg/dL. Also, in the series on Rats (carrageenan paw), the “Carrageenan Paw (% inhibition) ip” value stood at 58.8% and the “Carrageenan Paw (% inhibition) po” value was 51.0%. Further, the IC50 in series [1] stood at 0.3 nM.
For the compound `C[C@H]1O[C@@H](n2cc(-c3ccccc3)c3c(Nc4ccc(CN(C)C)cc4)ncnc32)[C@H](O)[C@@H]1O` [Compound 1, 4-N-(4-(N,N-Dimethylaminomethyl)phenyl)amino-5-phenyl-7-(5-deoxy-β-D-ribofuranosyl)pyrrolo[2,3-d]pyrimidine], in the series on Female SA rats, the “Alkaline Phosphatase” value was determined as 131 IU/L, the SGOT stood at 75 IU/L and the SGPT came to 44 IU/L. In addition, in the series with Rats (carrageenan paw), the “Carrageenan Paw (% inhibition) ip” value came out at 26.0%.
Take `Nc1ncnc2c1c(I)cn2[C@@H]1O[C@H](CO)[C@@H](O)[C@H]1O` [5-iodotubercidin]: the “flaccidity (skeletal muscle relaxation)” value in the series on mice [5] is listed as “pronounced general flaccidity”. The perfusate adenosine concentration entry in the series on isolated rat hearts (hypoxic, anoxic or ischemic conditions) is given as “no increase in perfusate adenosine concentration”; with isolated rat hearts (normoxic conditions) it was “no increase in perfusate adenosine concentration”. Further, the “protection against ischemic cerebral injury” value in the series with ischemic cerebral injury is recorded as “does not protect against ischemic cerebral injury”.
